# Key:
# [1] = system: Porcine Smooth Muscle Cell; assay: Porcine smooth muscle cell antiproliferation, 3H thymidine incorporation; format: cell-based; details: Sus scrofa, growth factor or serum stimulated, 24-36 h at 37° C., compound added with 3H thymidine and serum / growth factor
# Method: Effects of Compounds on Cell Proliferation Using ^3 H Thymidine Incorporation
# Human and porcine smooth muscle cells were tested in early passage (generally passage 3-7) at sub-confluent conditions. Cultures were grown in 16 mm (24 well) multi-well culture dishes in medium 199 supplemented with 10% fetal bovine serum and 2% antibiotic / antimycotic. At sub-confluence, the cells were placed in a defined serum free medium (AIM-V; Gibco) for 24-48 h prior to initiating the experimental protocol.
# Compounds were added to each well at 50 fold dilution (20 AL / well) and the plates were incubated for 24-36 h at 37° C. in 5% CO2. Compounds were initially dissolved in 50% ethanol and serially diluted into media. Compounds were routinely evaluated at concentrations from 1 to 100 μM. As a control, grade II porcine intestinal mucosal heparin (sodium salt) was routinely evaluated in all cell preparations at concentrations from 0.1 to 100 μg/mL.
# At the completion of the test procedure, plates were placed on ice, washed three times with ice cold phosphate buffered saline (PBS) and incubated in ice cold 10% trichloroacetic acid (TCA) got 30 min to remove acid soluble proteins. Solution was transferred to scintillation vials containing 0.4 N HCl (500 μL/ vial to neutralize NaOH) and each well was rinsed two times with water (500 μL) for a total volume of 2 mL / vial.
# Data was obtained, in triplicate, for both control and experimental samples. Control (100%) data was obtained from maximally stimulated cells, as the result of growth factor or serum stimulation. Experimental data was obtained from cells maximally stimulated with growth factor or serum and treated with compound. Data are expressed as an IC50 in Table I below.
# [2] = literature (Reilly 1993); cited from earlier work
# [3] = system: smooth muscle cell (SMC); details: literature; cited from earlier work
# [4] = system: endothelial cell; details: literature (Castellot 1987); cited from earlier work
Compound,IC50 [1],further results
"CC(=O)Nc1cc(CO[C@@H]2O[C@H](CN=[N+]=[N-])[C@@H](O[C@H]3O[C@@H]4COC(c5ccccc5)O[C@H]4[C@H](O)[C@H]3O)[C@H](O)[C@H]2O)ccc1Cl (stereo partly drawn) [Example 8, N-{5-[(6-Deoxy-6-azido-4',6'-O-benzylidene-β-D-maltosyl)-oxy-methyl]-2-chloro-phenyl}-acetamide]",614 nM,
β-cyclodextrin tetradecasulfate,,inhibition of restenosis [2]: effective inhibitor of restenosis; inhibition of SMC proliferation [3]: smooth muscle cell proliferation inhibitor
"CC(=O)Nc1cc(CO[C@@H]2O[C@H](CN3C(=O)c4ccccc4C3=O)[C@@H](O[C@H]3O[C@@H]4COC(c5ccccc5)O[C@H]4[C@H](OC(C)=O)[C@H]3OC(C)=O)[C@H](OC(C)=O)[C@H]2OC(C)=O)ccc1Cl (stereo partly drawn) [Example 6, N-(5-{[2,2',3,3'-Tetra-O-acetyl-4',6'-O-benzylidene-6-deoxy-6-(1,3-dioxo-1,3-dihydro-isoindol-2-yl)-β-D-maltosyl]-oxy-methyl}2-chloro-phenyl)-acetamide]",840 nM,
"CC(=O)Nc1cc(CO[C@@H]2O[C@H](Cn3cnc([N+](=O)[O-])c3)[C@@H](O[C@H]3O[C@@H]4COC(c5ccccc5)O[C@H]4[C@H](O)[C@H]3O)[C@H](O)[C@H]2O)ccc1Cl (stereo partly drawn) [Example 3, N-(5-{[4',6'-O-Benzylidene-6-deoxy-6-(4-nitro-1H-imidazol-1-yl)-β-D-maltosyl]-oxy-methyl}-2-chloro-phenyl)-acetamide]",1850 nM,
"CC(=O)Nc1cc(CO[C@@H]2O[C@H](CI)[C@@H](O[C@H]3O[C@@H]4COC(c5ccccc5)O[C@H]4[C@H](OC(C)=O)[C@H]3OC(C)=O)[C@H](OC(C)=O)[C@H]2OC(C)=O)ccc1Cl (stereo partly drawn) [Example 4, N-{5-[(2,2',3,3'-Tetra-O-acetyl-4',6',-O-benzylidene-6-deoxy-6-iodo-β-D-maltosyl)-oxy-methyl]-2-chloro-phenyl}-acetamide]",200 nM,
heparan sulfate,,inhibition of SMC proliferation [3]: endogenous inhibitors of SMC proliferation; endothelial cell growth [4]: able to promote endothelial cell growth
"CC(=O)Nc1cc(CO[C@@H]2O[C@H](CN3C(=O)c4ccccc4C3=O)[C@@H](O[C@H]3O[C@@H]4COC(c5ccccc5)O[C@H]4[C@H](O)[C@H]3O)[C@H](O)[C@H]2O)ccc1Cl (stereo partly drawn) [Example 7, N-(5-{[4',6'-O-Benzylidene-6-deoxy-6-(1,3-dioxo-1,3-dihydro-isoindol-2-yl)-β-D-maltosyl]-oxy-methyl}-2-chloro-phenyl)-acetamide]",1590 nM,
"CC(=O)Nc1cc(CO[C@@H]2O[C@H](Cn3cnc([N+](=O)[O-])c3)[C@@H](O[C@H]3O[C@@H]4COC(c5ccccc5)O[C@H]4[C@H](O)[C@H]3O)[C@H](O)[C@H]2O)ccc1C (stereo partly drawn) [Example 1, N-(5-{[4',6'-O-Benzylidene-6-deoxy-6-(4-nitro-1H-imidazol-1-yl)-β-D-maltosyl-oxy]-methyl}-2-methyl-phenyl)-acetamide]",11000 nM,
"CC(=O)Nc1cc(CO[C@@H]2O[C@H](CI)[C@@H](O[C@H]3O[C@@H]4COC(c5ccccc5)O[C@H]4[C@H](O)[C@H]3O)[C@H](O)[C@H]2O)ccc1Cl (stereo partly drawn) [Example 5, N-{5-[(4',6',-O-Benzylidene-6-deoxy-6-iodo-β-D-maltosyl)-oxy-methyl]-2-chloro-phenyl}-acetamide]",1160 nM,
heparin,,inhibition of SMC proliferation [3]: endogenous inhibitors of SMC proliferation; endothelial cell growth [4]: able to promote endothelial cell growth
"CC(=O)Nc1cc(CO[C@@H]2O[C@H](Cn3cnc([N+](=O)[O-])c3)[C@@H](O[C@H]3O[C@@H]4COC(c5ccccc5)O[C@H]4[C@H](OC(C)=O)[C@H]3OC(C)=O)[C@H](OC(C)=O)[C@H]2OC(C)=O)ccc1Cl (stereo partly drawn) [Example 2, N-(5-{[2,3,2',3'-Tetra-O-acetyl-4',6'-O-benzylidene-6-deoxy-6-(4-nitro-1 H-imidazol-1-yl)-β-D-maltosyl]-oxy-methyl}-2-chloro-phenyl)-acetamide]",807 nM,

# Reference: patent US6187755A, “Benzylmaltosides as inhibitors of smooth muscle cell proliferation” (American Home Products Corporation, priority 1999, dated 2001)
